Like-named read-outs stand apart in the source and are kept apart here.
Key:
[1] = biological target: GSK3α (GST-full length GSK3α) (Homo sapiens (Human), UniProt P49840); test: GSK3α TR-FRET kinase assay; assay type: biochemical
How it was run: (§1)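 Readout: anti-pSer641 Tb antibody/streptavidin-d2 signal after 60 min, expressed as 665/615 ratio and fitted versus log concentration for IC50. Enzyme: 1 nM GST-GSK3 (α or β), compound-preincubated 30 min. Conditions: pH 7.5 Tris buffer with MgCl2, DTT, BSA; ATP at 4 or 2 μM, or 1 mM; 100 min.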

[2] = biological target: GSK3b (GST-full length GSK3b) (Homo sapiens (Human), UniProt P49841); test: GSK3b TR-FRET kinase assay; assay type: biochemical
How it was run: as §1

[3] = 1 nM GSK3α, 4 μM ATP, 30 minute preincubation, Table 16, read-out: GSK3-A TR-FRET BIOCHEMICAL (TR-FRET), IC50
[4] = 1 nM GSK3b, 2 μM ATP, 30 minute preincubation, Table 16, read-out: GSK3-B TR-FRET BIOCHEMICAL (TR-FRET), IC50
[5] = read-out: GSK3-A (TR-FRET 1 mM ATP), GMean, IC50, 1 mM ATP, geometric mean
[6] = read-out: GSK3-B (TR-FRET 1 mM ATP), GMean, IC50, 1 mM ATP, geometric mean
[7] = 1 nM GSK3α, 4 μM ATP, 30 minute preincubation, Table 16, read-out: GSK3-A TR-FRET BIOCHEMICAL (TR-FRET)
[8] = 1 nM GSK3b, 2 μM ATP, 30 minute preincubation, Table 16, read-out: GSK3-B TR-FRET BIOCHEMICAL (TR-FRET)

Chain of GSK3b (GST-full length GSK3b) (P49841 whole entry): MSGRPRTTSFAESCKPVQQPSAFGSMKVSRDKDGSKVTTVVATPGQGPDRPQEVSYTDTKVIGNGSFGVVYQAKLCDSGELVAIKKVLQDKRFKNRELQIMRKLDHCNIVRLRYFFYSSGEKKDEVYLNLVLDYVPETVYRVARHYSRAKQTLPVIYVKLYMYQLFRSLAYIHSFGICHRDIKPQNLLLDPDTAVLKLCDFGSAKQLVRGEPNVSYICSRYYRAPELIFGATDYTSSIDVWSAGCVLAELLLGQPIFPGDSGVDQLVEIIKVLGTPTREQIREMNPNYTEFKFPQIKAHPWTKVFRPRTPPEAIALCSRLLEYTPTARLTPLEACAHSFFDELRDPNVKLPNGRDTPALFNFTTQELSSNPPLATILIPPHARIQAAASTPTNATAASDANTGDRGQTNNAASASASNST
Chain of GSK3α (GST-full length GSK3α) (P49840 whole entry): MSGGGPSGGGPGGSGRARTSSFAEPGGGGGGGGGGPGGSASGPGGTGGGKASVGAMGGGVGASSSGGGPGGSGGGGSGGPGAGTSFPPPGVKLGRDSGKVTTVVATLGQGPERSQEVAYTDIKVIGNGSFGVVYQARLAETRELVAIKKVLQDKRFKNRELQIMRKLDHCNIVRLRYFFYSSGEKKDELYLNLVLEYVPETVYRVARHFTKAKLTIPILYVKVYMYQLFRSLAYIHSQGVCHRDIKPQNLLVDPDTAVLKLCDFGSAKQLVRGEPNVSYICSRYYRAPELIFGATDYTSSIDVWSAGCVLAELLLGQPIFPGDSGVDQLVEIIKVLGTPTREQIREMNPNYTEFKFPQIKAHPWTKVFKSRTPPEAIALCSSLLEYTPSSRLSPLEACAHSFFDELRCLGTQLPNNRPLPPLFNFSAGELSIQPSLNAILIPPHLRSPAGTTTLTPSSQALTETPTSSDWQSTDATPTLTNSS

SMILES	IC50 [1, 3] [µM]	IC50 [2, 4] [µM]	other results
CC[C@]1(c2cccc(-c3cn(C)nc3C)c2)C2=C(CC(C)(C)NC2=O)Nc2n[nH]c(Cl)c21 [Compound 949329]	1 to 5	> 5	–
CC[C@]1(c2cccc(Oc3ncccn3)c2)C2=C(CC(C)(C)NC2=O)Nc2n[nH]cc21 [Compound 949330]	≤ 0.1	0.1 to 1	–
CC[C@@]1(c2cccc(-c3cc(C)nnc3C)c2)C2=C(CC(C)(C)NC2=O)Nc2n[nH]cc21 [Compound 949334]	1 to 5	> 5	–
CC[C@@]1(c2cccc(Oc3ncccn3)c2)C2=C(CC(C)(C)NC2=O)Nc2n[nH]cc21 [Compound 949335]	> 5	> 5	–
CCC1(c2cccc(-c3cn(C)nc3C)c2)C2=C(CC(C)(C)NC2=O)Nc2n[nH]c(Cl)c21 (centres unmarked) [Compound 949336]	≤ 0.1	≤ 0.1	IC50 [1, 5]: ≤ 0.1 µM; IC50 [2, 6]: 0.1 to 1 µM
CC[C@@]1(c2cccc(OC)c2)C2=C(CC(C)(C)NC2=O)Nc2n[nH]c(C)c21 [Compound 949337]	0.1 to 1	1 to 5	–
CCC1(c2cccc(C(F)(F)F)c2)C2=C(CC(C)N(c3cnc(OC)nc3)C2=O)Nc2n[nH]cc21 (centres unmarked) [Compound 949351]	≤ 0.1	0.1 to 1	–
CCC1(c2cccc(C(F)(F)F)c2)C2=C(CC(C)N(c3cnc(OC)nc3)C2=O)Nc2n[nH]cc21 (centres unmarked) [Compound 949352]	≤ 0.1	≤ 0.1	IC50 [1, 5]: 0.1 to 1 µM; IC50 [2, 6]: 1 to 5 µM
CC[C@@]1(c2cccc(C(F)(F)F)c2)C2=C(C[C@H](C)N(c3cnc(OC)nc3)C2=O)Nc2n[nH]cc21 [Compound 949354]	0.1 to 1	1 to 5	–
CC[C@@]1(c2cccc(-c3ccnc(C(F)F)c3)c2)C2=C(CC(C)(C)NC2=O)Nc2n[nH]cc21 [Compound 949388]	1 to 5	> 5	–
CCC1(c2cccc(-c3cnn4cccnc34)c2)C2=C(CC(C)(C)NC2=O)Nc2n[nH]cc21 (centres unmarked) [Compound 949389]	1 to 5	> 5	–
CCc1cccc(C2(CC)C3=C(CC(C)(C)CC3=O)Nc3n[nH]cc32)c1 (centres unmarked) [Compound 949391]	–	–	IC50 [1, 7]: 1 to 5 µM; IC50 [2, 8]: > 5 µM
CC[C@@]1(c2cccc(-c3c(C)ccc4c(C)cccc34)c2)C2=C(CC(C)(C)NC2=O)Nc2n[nH]c(F)c21 [Compound 949392]	1 to 5	> 5	–
CCC1(c2cccc(-c3cnn(C4CC4(F)F)c3)c2)C2=C(CC(C)(C)NC2=O)Nc2n[nH]cc21 (centres unmarked) [Compound 949393]	1 to 5	> 5	–
CC[C@]1(c2cccc(-c3ccnn3C)c2)C2=C(CC3(CCS(=O)(=O)CC3)NC2=O)Nc2n[nH]cc21 [Compound 949394]	≤ 0.1	0.1 to 1	–
CCC1(c2cccc(-c3cnn(C)c3F)c2)C2=C(CC(C)(C)NC2=O)Nc2n[nH]cc21 (centres unmarked) [Compound 949395]	1 to 5	> 5	–
CC[C@@]1(c2cccc(-c3ccnn3-c3ccc(F)cc3)c2)C2=C(CC(C)(C)NC2=O)Nc2n[nH]cc21 [Compound 949396]	> 5	> 5	–
CCC1(c2cccc(C3CCCC3)c2)C2=C(CC(C)(C)CC2=O)Nc2n[nH]cc21 (centres unmarked) [Compound 949397]	–	–	IC50 [1, 5]: 0.1 to 1 µM; IC50 [2, 6]: 1 to 5 µM
CCC1(c2cccc(-c3c(C)cnc4ccccc34)c2)C2=C(CC(C)(C)NC2=O)Nc2n[nH]cc21 (centres unmarked) [Compound 949398]	≤ 0.1	0.1 to 1	–
CC[C@]1(c2cccc(C3CCCC3)c2)C2=C(CC(C)(C)CC2=O)Nc2n[nH]cc21 [Compound 949399]	1 to 5	> 5	–
CC[C@@]1(c2cccc(-c3ccnn3C)c2)C2=C(CC3(CCS(=O)(=O)CC3)NC2=O)Nc2n[nH]cc21 [Compound 949400]	1 to 5	> 5	–
CC[C@]1(c2cccc(-c3ccnc(C)c3)c2)C2=C(CC(C)(C)NC2=O)Nc2n[nH]c(Cl)c21 [Compound 949421]	0.1 to 1	> 5	–
CC[C@@]1(c2cccc(-c3ccnc(C)c3)c2)C2=C(CC(C)(C)NC2=O)Nc2n[nH]c(Cl)c21 [Compound 949422]	≤ 0.1	≤ 0.1	IC50 [1, 5]: 0.1 to 1 µM; IC50 [2, 6]: 1 to 5 µM
CC[C@@]1(c2cccc(-c3cc(C4CCCC4)nn3C)c2)C2=C(CC(C)(C)NC2=O)Nc2n[nH]cc21 [Compound 949509]	> 5	> 5	–
CC[C@@]1(c2cccc(-c3cnn(CCN4CCCC4)c3)c2)C2=C(CC(C)(C)NC2=O)Nc2n[nH]cc21 [Compound 949510]	> 5	> 5	–

SMILES	IC50 [1, 3] [µM]	IC50 [2, 4] [µM]	other results
CC[C@@]1(c2cccc(-c3cnn(Cc4ccc(C(F)(F)F)cc4)c3)c2)C2=C(CC(C)(C)NC2=O)Nc2n[nH]cc21 [Compound 949511]	> 5	> 5	–
CC[C@@]1(c2cccc(-c3cnn(Cc4cccc(C(F)(F)F)c4)c3)c2)C2=C(CC(C)(C)NC2=O)Nc2n[nH]cc21 [Compound 949513]	> 5	> 5	–
CCC1(c2cccc(C3CCC3)c2)C2=C(CC(C)(C)CC2=O)Nc2n[nH]cc21 (centres unmarked) [Compound 949514]	1 to 5	> 5	–
CC[C@@]1(c2cccc(-c3cnn(-c4cccnc4)c3)c2)C2=C(CC(C)(C)NC2=O)Nc2n[nH]cc21 [Compound 949515]	> 5	> 5	–
CC[C@@]1(c2cccc(-c3ccncc3C(F)(F)F)c2)C2=C(CC(C)(C)NC2=O)Nc2n[nH]cc21 [Compound 949516]	1 to 5	> 5	–
CC[C@@]1(c2cccc(-c3ccnn3C3CC3(F)F)c2)C2=C(CC(C)(C)NC2=O)Nc2n[nH]cc21 (some centres unmarked) [Compound 949518]	0.1 to 1	> 5	–
CC[C@@]1(c2cccc(-c3cnn(-c4ccccc4)c3F)c2)C2=C(CC(C)(C)NC2=O)Nc2n[nH]cc21 [Compound 949519]	> 5	> 5	–
CC[C@]1(c2cccc(-c3ccnc(C)c3)c2)C2=C(CC3(CCC3)NC2=O)Nc2n[nH]cc21 [Compound 949520]	≤ 0.1	0.1 to 1	–
CC[C@@]1(c2cccc(C3CCC3)c2)C2=C(CC(C)(C)CC2=O)Nc2n[nH]cc21 [Compound 949521]	≤ 0.1	≤ 0.1	IC50 [1, 5]: 0.1 to 1 µM; IC50 [2, 6]: 1 to 5 µM
CC[C@@]1(c2cccc(C(F)(F)F)c2)C2=C(CCN(CCOC)C2=O)Nc2n[nH]cc21 [Compound 949599]	0.1 to 1	0.1 to 1	–
CC[C@]1(c2cccc(C(F)(F)F)c2)C2=C(CCN(CCOC)C2=O)Nc2n[nH]cc21 [Compound 949600]	> 5	> 5	–
CCC1(c2cccc(C(F)(F)F)c2)C2=C(CCC2=O)Nc2n[nH]cc21 (centres unmarked) [Compound 949639]	0.1 to 1	0.1 to 1	–
CC1CCC12C1=C(CC(C)(C)CC1=O)Nc1n[nH]cc12 (centres unmarked) [Compound 949640]	–	–	IC50 [1, 7]: 0.1 to 1 µM; IC50 [2, 8]: 1 to 5 µM
CCC1(c2cccc(C(F)(F)F)c2)C2=C(CCN(c3cn(C)nc3C)C2=O)Nc2n[nH]cc21 (centres unmarked) [Compound 949641]	> 5	> 5	–
CC[C@]1(c2cccc(-c3ccncc3F)c2)C2=C(CC(C)(C)NC2=O)Nc2n[nH]c(F)c21 [Compound 949643]	> 5	> 5	–
CC[C@]1(c2cccc(-c3cc(C)ncc3F)c2)C2=C(CC(C)(C)NC2=O)Nc2n[nH]c(C(F)(F)F)c21 [Compound 949644]	0.1 to 1	1 to 5	–
CC[C@@]1(c2cccc(C(C)C)c2)C2=C(CC(C)(C)NC2=O)Nc2n[nH]c(C)c21 [Compound 949646]	> 5	> 5	–
CC[C@@]1(c2cccc(N(C)c3ncccn3)c2)C2=C(CC(C)(C)NC2=O)Nc2n[nH]c(F)c21 [Compound 949648]	≤ 0.1	≤ 0.1	IC50 [1, 5]: ≤ 0.1 µM; IC50 [2, 6]: 1 to 5 µM
CC[C@]1(c2cccc(C(C)C)c2)C2=C(CC(C)(C)NC2=O)Nc2n[nH]c(C)c21 [Compound 949649]	≤ 0.1	≤ 0.1	IC50 [1, 5]: 0.1 to 1 µM; IC50 [2, 6]: 1 to 5 µM
CC[C@@]1(c2cccc(-c3cc(C)ncc3F)c2)C2=C(CC(C)(C)NC2=O)Nc2n[nH]c(C(F)(F)F)c21 [Compound 949650]	≤ 0.1	≤ 0.1	IC50 [1, 5]: 0.1 to 1 µM; IC50 [2, 6]: 1 to 5 µM
CCC1(c2cccc(-c3ccncc3F)c2)C2=C(CC(C)(C)NC2=O)Nc2n[nH]c(F)c21 (centres unmarked) [Compound 949651]	≤ 0.1	≤ 0.1	IC50 [1, 5]: 0.1 to 1 µM; IC50 [2, 6]: > 5 µM
CC[C@@]1(c2cccc(C(F)(F)F)c2)C2=C(Nc3n[nH]cc31)c1ccccc1C2=O [Compound 949742]	0.1 to 1	0.1 to 1	–
CC[C@]1(c2cccc(C(F)(F)F)c2)C2=C(Nc3n[nH]cc31)c1ccccc1C2=O [Compound 949743]	≤ 0.1	≤ 0.1	IC50 ([1]; GSK3-A (TR-FRET 1 mM ATP), GMean, IC50, 1 mM ATP, geometric mean): ≤ 0.1 µM; IC50 ([2]; GSK3-B (TR-FRET 1 mM ATP), GMean, IC50, 1 mM ATP, geometric mean): 0.1 to 1 µM
CCC1(c2cccc(C(C)C)c2)C2=C(CC(C)(C)NC2=O)Nc2n[nH]c(C(F)(F)F)c21 (centres unmarked) [Compound 949747]	≤ 0.1	≤ 0.1	–
